96 molecules from PubChem BioAssay AID1117319 (Southern Research Institute, 2015) can be followed below.

Inconclusive results are not listed.

The target of this assay is Virion infectivity factor (Human immunodeficiency virus type 1 group M subtype B (isolate BH10)) + Virion infectivity factor (Human immunodeficiency virus type 1 group M subtype B (isolate BRU/LAI)) + Virion infectivity factor (Human immunodeficiency virus type 1 group M subtype B (isolate PCV12)) + Virion infectivity factor (Human immunodeficiency virus type 1 group M subtype B (isolate HXB2)) + DNA dC->dU-editing enzyme APOBEC-3G (Homo sapiens) (UniProt P69720+P69721+P69722+P69723+Q9HC16). In words: inhibitors of Vif binding to APOBEC3G peptide, primary screen, biochemical, TR-FRET, GST-Vif 1-94, biotin-A3G peptide, dose response retest (AID 1117319).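 Also: Vif residues 1-94 fused to GST binding biotinylated APOBEC3G peptide 110-148.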
In the case of `Cc1ccc2[nH]c(=O)c(C3C(C#N)=C(N)Oc4c3ccc3cccnc43)cc2c1` (stereo unspecified), the half-maximal inhibitory concentration (IC50) was 24.3 µM.
As to `CCc1nc2oc3cc(OC)ccc3c(=O)c2c(=O)n1Cc1ccco1`, the half-inhibitory concentration (IC50) is 39.4 µM.
Turning to `Cc1ccc[n+](-c2[nH]c(=O)sc2/C=N/NC(=O)c2ccccc2[O-])c1`, the IC50 was 51.4 µM.
On to `O/C=c1\ccc2cccc3nc(C(F)(F)F)nc1c23`, for which the IC50 is 2.79 µM.
In the case of `Nc1ccc(Nc2ccccc2)c(S(=O)(=O)O)c1`, the IC50 was 5.26 µM.
Consider `COCCN=c1scc(-c2cccs2)n1/N=C/c1ccc(O)c(O)c1O`, for which the IC50 is 2.37 µM.
`Cc1cc(C)c2c(=N)c3ccccc3n(CCCCCCCCn3c4ccccc4c(=N)c4c(C)cc(C)nc43)c2n1`: the IC50 was 1.46 µM.
Take `Cc1cccc(NC(=S)NC(=O)/C=C/c2ccco2)c1`: the IC50 is 17.5 µM.
For the molecule `CCN1/C(=C(\O)c2ccccc2)C(=O)c2ccccc2S1(=O)=O`, the IC50 was 55 µM.
Take `Cc1nn(Cc2ccccc2)c(C)c1C(=O)OCC(=O)c1cc(C)n(C2CC2)c1C`: the IC50 was 80.5 µM.
For `COc1cccc(C2C(C#N)=C(N)OC3=C2C(=O)CC(c2ccco2)C3)c1OCc1ccc(F)cc1` (stereo unspecified) the value was 7.82 µM; for `COc1ccc(/C=N/NC(=O)CNc2n[nH]c(=O)[nH]c2=O)cc1OC`, 42.6 µM.
In the case of `O=[N+]([O-])c1ccccc1S(=O)(=O)NC1CCCC1`, the IC50 is 12.9 µM.
`Cc1cc(NC(=O)CCNS(=O)(=O)c2cc(Br)cnc2N)ccc1Br`: the half-maximal inhibitory concentration (IC50) is 35.2 µM.
For `CCn1c(SCC(=O)NCc2ccco2)nnc1-c1cccs1` the value was 95.8 µM.
Consider `O=C1CCCC(O)=C1N=Nc1cccc(C(=O)O)c1`, for which the IC50 is 5.61 µM.
In the case of `Oc1ccc(/C=N/NP(=S)(c2ccccc2)c2ccccc2)c(O)c1O`, the IC50 was 17.6 µM.
For `CC1=CC(=Nc2c(C)n(C)n(-c3ccccc3)c2=O)C=CC1=O` the value was 5.02 µM; for `O=C(O)c1ccc(-n2cccc2/C=C2/NC(=O)N(c3ccccc3)C2=O)cc1`, 3.34 µM; for `Cc1ccc(NC(=O)CN2C(=O)N/C(=C/c3ccco3)C2=O)cc1`, 2 µM.
Regarding `CCCCOc1ccc(C(=O)NCC(=O)NCC(=O)OCC)cc1`, the IC50 was 76.9 µM.
Consider `Cc1c(C)n(C(=O)CSc2nc3ccccc3[nH]2)c2ccccc12`, for which the IC50 was 39.7 µM.
On to `C=CCN(CC=C)C(=S)NC(=O)c1ccc([N+](=O)[O-])cc1`, for which the half-maximal inhibitory concentration (IC50) is 66.8 µM.
For `CCOc1ccc(C(=O)NC(=S)Nc2ccc(N3CCC(C)CC3)cc2)cc1[N+](=O)[O-]`, the IC50 is 55.4 µM.
As to `O=C1S/C(=C\C=C\c2ccco2)C(=O)N1c1ccc(O)cc1`, the 50% inhibitory concentration (IC50) is 0.69 µM.
For `Cc1ccc2c(c1)C1C=CCC1C(C(=O)O)N2` (stereo unspecified) the value was 0.95 µM; for `Cc1cc(SCC(=O)N/N=C/c2ccc(O)c(O)c2O)c(C)cc1Br`, 13.3 µM; for `O=C1NC(=S)N(c2ccc(F)cc2)C(=O)/C1=C\c1ccoc1`, 18.8 µM.
Consider `O=C1CC(Nc2ccc(N3CCOCC3)cc2)C(=O)N1Cc1ccccc1` (stereo unspecified), for which the 50% inhibitory concentration (IC50) is 2.29 µM.
Turning to `Cc1cc(C(=O)CSc2nnnn2-c2ccccc2)c(C)n1CC1CCCO1` (stereo unspecified), the IC50 was 9.78 µM.
For the molecule `CCOc1cccc(=O)c2c(C)n(Cc3ccco3)c(C)c12`, the 50% inhibitory concentration (IC50) is 0.45 µM.
For `CN(C1=C(NC(=O)c2ccc(Cl)cc2)C(=O)c2ccccc2C1=O)c1ccccc1` the value was 52.4 µM; for `Oc1ccccc1/C=N/c1c(-c2ccco2)nc2ccccn12`, 0.48 µM.
With `CNc1ccc(Br)cc(C(=O)/C=C/c2ccc(OC)cc2OC)c1=O`, the 50% inhibitory concentration (IC50) was 2.79 µM.
For `Cc1ccc(CCC(=O)Nc2ccc(S(N)(=O)=O)cc2)o1`, the half-maximal inhibitory concentration (IC50) was 57.4 µM.
Take `O=C(COc1ccc(S(=O)(=O)N2CCCC2)cc1)NCCC1=CCCCC1`: the concentration for half-maximal inhibition (IC50) was 75.1 µM.
As for `COc1cccc(-c2cc(C(=O)Nc3c(C)n(C)n(-c4ccccc4)c3=O)no2)c1`, the IC50 was 72.5 µM.
As for `CC[n+]1c(/C=C2/C=C(C)CC(C)(C)C2)sc2ccc(OC)cc21`, the concentration for half-maximal inhibition (IC50) is 21.7 µM.
With `O=C(Nc1ccc(Cl)c(-c2nc3ccccc3[nH]2)c1)c1cccnc1`, the IC50 is 79.7 µM.
As to `O=c1c(O)cccc2cc(O)c(O)c(O)c12`, the IC50 was 1.03 µM.
`CCN1CCc2c(C#N)c(NCc3ccccc3)nc(N(CC)CC)c2C1`: the IC50 was 62.8 µM.
For the molecule `O=C(NN(C(=O)c1ccccc1)c1ccccc1)c1ccccc1`, the half-inhibitory concentration (IC50) was 70.7 µM.
`O=[N+]([O-])c1ccc(N2CCN(c3ccc(Cl)nn3)CC2)c(Cl)c1`: the IC50 is 99.1 µM.
For `O=C(Cc1csc(N2CCOCC2)n1)N/N=C/c1ccc(O)c(O)c1O` the value was 1.3 µM; for `COc1cc(C2C(C#N)=C(N)N(c3cccnc3)C3=C2C(=O)CCC3)ccc1O` (stereo unspecified), 13.6 µM.
For `CCCCOc1ccccc1C1NC(=O)NC(C)=C1C(=O)OCc1ccco1` (stereo unspecified) the value was 57.3 µM.
As for `COCOC1CCC2C3CCC4=CC(=O)CCC4=C3C=CC12C` (stereo unspecified), the IC50 is 23.2 µM.
For the molecule `Fc1cccc(-c2cc3nc4c(c(NCc5ccco5)n3n2)CCCC4)c1`, the IC50 was 50.8 µM.
For `O=C(CN1CCN(c2ccccc2O)CC1)Nc1ccc2c(c1)CCC2` the value was 50.8 µM; for `CCOC(=O)CNc1ccc2c(c1)OCO2`, 2.46 µM.
Turning to `O=C(NCc1ccccn1)c1coc(=O)c(Br)c1`, the 50% inhibitory concentration (IC50) is 58.6 µM.
On to `O=C1C(=Cc2ccco2)CCCC1=Cc1ccco1`, for which the IC50 is 12.1 µM.
Turning to `CC1=C(C(=O)Nc2ccccc2F)C(c2ccsc2)C2=C(CC(c3ccccc3)CC2=O)N1` (stereo unspecified), the IC50 was 1.02 µM.
Take `Cc1ccc(/C=C/C(=O)Nc2cccc(S(=O)(=O)N3CCOCC3)c2)o1`: the IC50 is 20.9 µM.
Take `CN(C)c1cc(Cl)c2nonc2c1N`: the half-inhibitory concentration (IC50) was 11.9 µM.
As to `COc1ccc(N=C2NC(=O)/C(=C\C=C\c3ccco3)S2)cc1`, the IC50 is 2.2 µM.
For `O=c1cc(CO)oc(C(Nc2ccccn2)c2ccc(F)cc2)c1O` (stereo unspecified), the half-maximal inhibitory concentration (IC50) is 85.7 µM.
Take `O=C1C(Cl)=C(Oc2ccccc2)C(=O)c2ccccc21`: the concentration for half-maximal inhibition (IC50) is 23.6 µM.
For `Cc1c(O)cc2c(c1O)C(=O)CC(c1ccc(O)cc1)O2` (stereo unspecified) the value was 2.68 µM; for `Cc1nc2cc(N=NC3=C(O)CCCC3=O)ccc2s1`, 1.28 µM.
Consider `COc1ccc(CN2C(=O)NC(=O)/C(=C/c3ccc([N+](=O)[O-])s3)C2=O)cc1`, for which the half-inhibitory concentration (IC50) is 14.5 µM.
Take `COc1ccc(CCNC(=O)/C=C/c2ccco2)cc1`: the IC50 was 37 µM.
As to `COc1ccc(NC(=O)N2c3ccc(OC)cc3C(C)=CC2(C)C)cc1`, the IC50 was 3.27 µM.
`O=C1N=C(N2CCN(c3ccccc3)CC2)S/C1=C\c1ccco1`: the 50% inhibitory concentration (IC50) was 4.27 µM.
As for `COc1ccccc1/C=C(/CC(=O)NCc1ccccc1)c1nc2ccccc2s1`, the concentration for half-maximal inhibition (IC50) is 45.3 µM.
For `CCc1cccc(NC(=O)CCCCCC2NC(=O)NC2C)c1` (stereo unspecified), the IC50 was 0.47 µM.
For `c1cnc(N2CCN(c3cnccn3)CC2)nc1` the value was 14.3 µM; for `CCOC(=O)C1=C(COC(=O)/C=C/c2ccco2)NC(=O)NC1C` (stereo unspecified), 10.9 µM; for `COc1cc(OC)c2c(O)c3c(c(-c4c5c(c(O)c6c(OC)cc(OC)cc46)CO[C@@H](C)[C@H]5O)c2c1)[C@H](O)[C@H](C)OC3`, 4.61 µM.
Take `O=C1NC(=S)N/C1=C/c1ccc(-c2c(Br)cc([N+](=O)[O-])cc2Br)o1`: the IC50 was 39 µM.
For `O=C1c2cccnc2C(Nc2ccccc2)N1Cc1ccco1` (stereo unspecified) the value was 22.9 µM; for `COc1cc(N(C)C)ccc1C=c1c2ccccc2n2c1cc(-c1ccccc1)[n+]2C`, 5.33 µM.
Consider `CCOC(=O)C1CCN(C(=O)Nc2ccc3nc(-c4ccco4)c(-c4ccco4)nc3c2)CC1`, for which the 50% inhibitory concentration (IC50) is less than 0.432 µM.
As for `COc1cccc(NC(=O)CSc2nnc(-c3ccco3)c(-c3ccco3)n2)c1`, the half-maximal inhibitory concentration (IC50) is 10.2 µM.
Take `O=c1nc2s/c(=C\c3ccco3)c(=O)n2nc1Cc1ccccc1`: the half-maximal inhibitory concentration (IC50) was 4.18 µM.
As for `Fc1ccccc1/C=C1\CCCC2=C1Nc1ncnn1C2c1ccccc1F` (stereo unspecified), the IC50 is 38.3 µM.
For `CC(=O)Nc1ccc(NC(=O)CSCc2cnn(-c3ccccc3)c2-n2cccc2)cc1` the value was 25.9 µM; for `CCC(C)Cn1c(O)cc2nn(-c3nc4ccccc4s3)c(=O)c-2c1C` (stereo unspecified), 2.65 µM; for `NNc1ccc([N+](=O)[O-])c2[nH][nH]c(=O)c12`, 1.93 µM.
On to `NS(=O)(=O)c1ccc(N/N=C/c2ccc(O)c(O)c2O)c([N+](=O)[O-])c1`, for which the half-inhibitory concentration (IC50) is 0.92 µM.
`CC[n+]1ccc(C)c2cc(P(=O)(c3ccccc3)c3ccccc3)ccc21`: the half-maximal inhibitory concentration (IC50) is 3.93 µM.
As to `O=C1NC(=O)N(c2cccc(Cl)c2)C(=O)/C1=C\c1ccc(Sc2nc3ccccc3[nH]2)o1`, the IC50 was 10.1 µM.
Consider `Cc1[nH]c2ccccc2c1Cc1nnc(SCc2ccccc2)o1`, for which the IC50 is 70.8 µM.
As for `COc1ccccc1C1CC(=O)Nc2c1c(=O)n(C)c(=O)n2C` (stereo unspecified), the IC50 was 70.4 µM.
For the molecule `CSc1nc(NCCOCCO)c2sc3nc(-c4ccco4)c4c(c3c2n1)CCC4`, the half-inhibitory concentration (IC50) is 1.41 µM.
With `CC(=O)NN1C(=O)/C(=C/c2ccc(Br)o2)SC1=S`, the IC50 was 11.7 µM.
As to `C(=C\c1ccco1)/C=N/n1cnnc1`, the IC50 was 1.35 µM.
As to `COc1ccc(NS(=O)(=O)c2cccc(C(=O)NNC(=O)c3cccn3C)c2)cc1`, the 50% inhibitory concentration (IC50) was 12.7 µM.
Consider `CCCCC1=CC2=CC(=O)C(C)(OC(=O)c3cnc4ccccc4n3)C(=O)C2=CO1` (stereo unspecified), for which the half-maximal inhibitory concentration (IC50) was 12.4 µM.
Turning to `O=[N+]([O-])c1cc(CN2CCOCC2)c2cccnc2c1O`, the half-inhibitory concentration (IC50) was 4.07 µM.
For `O=C(NC(=S)N1CCCc2ccccc21)c1ccccc1` the value was 28.4 µM.
On to `CC(=O)OC(C)C1C2=C(C(=O)CC1(C)O)C(=O)c1c(ccc(-c3ccc4c(c3O)C(=O)C3=C(C4=O)C(C(C)OC(C)=O)C(C)(O)CC3=O)c1O)C2=O` (stereo unspecified), for which the half-inhibitory concentration (IC50) was 0.73 µM.
In the case of `O=c1cc(-c2ccc(O)cc2)oc2cc(O)c(C3OC(CO)C(O)C(O)C3O)c(O)c12` (stereo unspecified), the IC50 was 7.05 µM.
With `O=C(COC(=O)/C=C/c1ccco1)Nc1ncc(C(F)(F)F)cc1Cl`, the IC50 was 12.7 µM.
For `C=C(C)C(=O)Nc1ccc2c(c1)OCCOCCOCCO2` the value was 1.89 µM; for `Cc1cc(/C=C2\SC(=S)NC2=O)c(C)n1C`, 36.2 µM.
